Experimental data as given in paper PMC8398766, “Do Small Molecules Activate the TrkB Receptor in the Same Manner as BDNF? Limitations of Published TrkB Low Molecular Agonists and Screening for Novel TrkB Orthosteric Agonists” (Pharmaceuticals, 2021).
In brackets after ≈: the same amount, converted by molar mass. Entries after “also recorded” stand apart in the source; their conditions may differ. Where two headings read alike, the source gives them in different places.

How the values were obtained:
[1] = Metabolic stability in mouse liver microsomes; conditions: compared with verapamil
physchem = conditions: 25 °C, pH 7.4, aqueous buffer, kinetic from dmso stock, pH 7.4, 4 h
[2] = Metabolic stability in human liver microsomes; conditions: compared with verapamil
in vitro [3] = conditions: PAMPA, pH 7.4
in vivo = type: in vivo, BALB/c mice
Experimental: The animals were obtained from the Center of Experimental Medicine (University of Bialystok, Bialystok, Poland) and housed under standard laboratory conditions. Mice had unlimited access to water and food. All the procedures were conducted according to the guidelines of the local ethical commission (appl no. 06/2019, perm. no 10/2019). […] Four animals per time point were sacrificed at 10 min, 30 min, 1 h, 2 h, and 4 h after per os administration and 5 min, 10 min, 30 min, 1 h, and 2 h after i.v. administration. The blood (0.5 mL) was collected by heart puncture using probes with anticoagulants (K2EDTA). Plasma samples were obtained by blood centrifugation (15 min, 3000× g at 23 °C). The whole brain was dissected from the skull and washed with cold 0.9% NaCl on ice. The left hemisphere was quickly frozen in liquid nitrogen and stored at −80 °C for further bioanalytical analysis. From the right hemisphere, the hippocampus and frontal cortex were isolated, weighed, and stored at −80 °C after freezing in liquid nitrogen. Isolated structures were homogenized in N-PER cocktail (10 μL for every 1 mg of tissue) using a hand homogenizer, and then processed as described in Section 4.3.3.
For bioanalytical evaluation, brain samples were homogenized in water (3 mL for every 1 g of brain tissue). Plasma and brain samples were then prepared by precipitating proteins and extracting analytes using acetonitrile with the addition of the internal standard: 150 μL of extraction solution was added to 50 μL of biological material, mixed for 1 min and centrifuged (12,900 RPM, 4 min, 4 °C), and the supernatant was collected for analysis. Standard solutions including calibration standards and quality control samples were prepared by spiking 45 μL of biological material with 5 μL of standard working solution, adding 150 μL of extraction solution, and then mixing, centrifuging, and collecting the supernatant for analysis. The concentrations of analytes in the plasma and brain samples were determined using a UPLC-MS/MS instrument (Agilent Technologies) and chromatographic columns (Agilent Zorbax Eclipse 50 × 2.1 mm; 1.7 μm).

in vitro [4] = conditions: human, Caco-2
[5] = system: TrkB receptor and downstream proteins (PLCγ1, Akt1, ERK1/2); test: Pharmacodynamics: immunoblot of hippocampus and frontal cortex; type: in vivo, BALB/c mice; conditions: 30 min and 2 h after 50 mg/kg p.o.
Experimental: Compound treatment was stopped by lysing cells with N-PER™ Neuronal Protein Extraction Reagent (Thermo Fisher Scientific) containing 1 × PhosSTOP™ (Roche, Basel, Switzerland), 1 × Halt Protease Inhibitor Single-Use Cocktail (ThermoFisher Scientific) and 5 mM EDTA. The lysates were collected by scraping, and centrifuged (8000× g; 10 min at 4 °C), and the protein concentration was determined using a BCA Pierce kit (ThermoFisher Scientific). The lysates were stored at −80 °C until further processing. Samples containing 20 μg of protein were further denatured in 4 × Laemli Buffer with 5% β-mercaptoethanol at 95 °C for 5 min and electrophoresed on gels prepared using a 10% TGX Stain-Free™ FastCast™ Acrylamide Kit (Bio-Rad). Afterwards, the proteins were transferred (wet transfer, 100 V, 60 min) onto nitrocellulose membranes (GE Healthcare, Chicago, IL, USA), which were blocked in 5% BSA in TBS-T (TBS + 0.1% Tween20) for 2 h. […] After repeated washes (TBS-T), the proteins were detected with HRP-conjugated anti-rabbit antibodies (1:4000, RT, 2 h) (Cell Signaling Technology), and the blots were incubated with Clarity Max ECL Western Blotting Substrate (Bio-Rad). Blot images and chemiluminescence signals were captured using a ChemiDoc MP Imaging System, and densitometry values were calculated using the Image Lab software (Bio-Rad). […]

PAMPA = conditions: 10 μM, 4 h
TrkB receptor = target: T1, TrkB receptor (Rattus norvegicus, UniProt Q63604); test: ELFI TrkB phosphorylation, orthosteric agonist mode, SN56 T48 cell line; type: cell-based; conditions: TrkB phosphorylation (Tyr706), 15 min
T1 construct: host or cells: SN56 T48 cell line
T1 sequence (Q63604 32-821): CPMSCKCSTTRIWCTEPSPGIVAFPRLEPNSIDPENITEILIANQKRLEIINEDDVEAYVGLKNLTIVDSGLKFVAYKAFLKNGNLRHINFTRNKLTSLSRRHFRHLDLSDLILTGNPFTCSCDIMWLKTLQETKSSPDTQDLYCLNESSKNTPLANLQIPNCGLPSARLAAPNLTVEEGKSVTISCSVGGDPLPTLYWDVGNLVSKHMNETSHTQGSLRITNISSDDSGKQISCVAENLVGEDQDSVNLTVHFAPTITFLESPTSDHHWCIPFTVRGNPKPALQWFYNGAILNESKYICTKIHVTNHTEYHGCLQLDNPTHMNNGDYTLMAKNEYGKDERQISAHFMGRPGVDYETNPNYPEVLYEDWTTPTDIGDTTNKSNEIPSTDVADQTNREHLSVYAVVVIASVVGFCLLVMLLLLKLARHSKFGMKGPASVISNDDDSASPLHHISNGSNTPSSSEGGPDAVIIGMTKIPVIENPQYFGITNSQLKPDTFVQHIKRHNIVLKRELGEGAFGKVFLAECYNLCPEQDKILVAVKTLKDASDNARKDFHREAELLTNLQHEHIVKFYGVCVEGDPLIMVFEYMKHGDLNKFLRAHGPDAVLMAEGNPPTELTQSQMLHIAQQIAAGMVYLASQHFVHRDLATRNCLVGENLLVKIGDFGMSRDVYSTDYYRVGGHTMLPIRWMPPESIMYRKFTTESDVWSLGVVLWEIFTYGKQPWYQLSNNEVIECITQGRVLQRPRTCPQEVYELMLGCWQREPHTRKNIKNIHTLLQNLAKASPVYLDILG

[6] = male, BALB/c, mouse, in vivo, po, 50 mg/kg
[7] = no orthosteric activity given as 0

**Q.** What does the source list for `O=c1cc(-c2ccccc2)oc2c(O)c(O)ccc12` [7,8-DHF, 7,8-dihydroxyflavone]?
**A.** Metabolic stability in MLM (classification) [1]: moderate degradation rate; solubility kinetic at 4 h (physchem): 303 µM (≈ 77 µg/mL); Metabolic stability in HLM (classification) [2]: moderate degradation rate; Papp at 4 h, 10 μM (in vitro [3]): 15.8 ×10⁻⁶ cm/s; Detection in plasma or brain samples (in vivo; 7,8-DHF i.v. 1 mg/kg): not detectable; C brain, individual mice (in vivo; 7,8-DHF i.v. 1mg/kg, 5min): < LLQ; C plasma, individual mice (in vivo; 7,8-DHF i.v. 1mg/kg, 5min): < LLQ; C brain, individual mice (in vivo; 7,8-DHF i.v. 1mg/kg, 10 min): < LLQ; C plasma, individual mice (in vivo; 7,8-DHF i.v. 1mg/kg, 10 min): < LLQ; C brain, individual mice (in vivo; 7,8-DHF i.v. 1mg/kg, 30 min): < LLQ; C plasma, individual mice (in vivo; 7,8-DHF i.v. 1mg/kg, 30 min): < LLQ; C brain, individual mice (in vivo; 7,8-DHF i.v. 1mg/kg, 1h): < LLQ; C plasma, individual mice (in vivo; 7,8-DHF i.v. 1mg/kg, 1h): < LLQ; C brain, individual mice (in vivo; 7,8-DHF i.v. 1mg/kg, 2h): < LLQ; C plasma, individual mice (in vivo; 7,8-DHF i.v. 1mg/kg, 2h): < LLQ; C plasma, individual mice (in vivo; 7,8-DHF p.o 50mg/kg, 1h): < LLQ; C brain, individual mice (in vivo; 7,8-DHF p.o 50mg/kg, 4h): < LLQ; C plasma, individual mice (in vivo; 7,8-DHF p.o 50mg/kg, 4h): < LLQ; Brain concentration relative to plasma (in vivo; 7,8-DHF p.o. 50 mg/kg): 10 fold lower; Time at which plasma concentration fell under the detection limit (in vivo; 7,8-DHF p.o. 50 mg/kg): 1 h; AUC (in vivo; [6]): 20.9 ng·h/mL; Time of maximal plasma concentration (in vivo; [6]): 10 min; Tmax (in vivo; [6]): 9.6 min; Cmax (in vivo; male, BALB/c, mouse, in vivo, po, 50 mg/kg, brain, 7,8-DHF p.o. 50 mg/kg, read-out: Cmax): 6.35 ng/g; Cmax (in vivo; male, BALB/c, mouse, in vivo, po, 50 mg/kg, plasma, 7,8-DHF p.o. 50 mg/kg, read-out: Cmax): 77.4 ng/mL; Cmax (in vivo; plasma, 7,8-DHF p.o. 50 mg/kg, 50 mg/kg): 72.42 ng/mL; Papp A→B at 2 h (in vitro [4]): 22.8 ×10⁻⁶ cm/s; Papp B→A at 2 h (in vitro [4]): 12.4 ×10⁻⁶ cm/s; Activation of the TrkB receptor (phosphorylation) [5]: did not observe any activation; also recorded: no effect; PLCγ1, Akt1, and ERK1/2 phosphorylation [5]: no impact

**Q.** Which “Metabolic stability in MLM (classification)” value [1] does the source give for `C=CC(C)(C)c1[nH]c2ccccc2c1C1=C(O)C(=O)C(c2c[nH]c3c(CC=C(C)C)cccc23)=C(O)C1=O` [DMAQ-B1] here?
**A.** instability of this compound in the experimental system

**Q.** And the PAMPA (PAMPA)?
**A.** 6.93 10^−6·cm/s

**Q.** What about the “Metabolic stability in HLM (classification)” value [2] of the same molecule?
**A.** instability of this compound in the experimental system

**Q.** And the EC50 (TrkB receptor; [7])?
**A.** 5000 nM

B1: BDNF: Brain-derived neurotrophic factor, endogenous TrkB receptor agonist (protein, UniProt P23560 19-247, looked up)
Neurotrophic factor BDNF …: APMKEANIRGQGGLAYPGVRTHGTLESVNGPKAGSRGLTSLADTFEHVIEELLDEDQKVRPNEENNKDADLYTSRVMLSSQVPLEPPLLFLLEEYKNYLDAANMSMRVRRHSDPARRGELSVCDSISEWVTAADKKTAVDMSGGTVTVLEKVPVSKGQLKQYFYETKCNPMGYTKEGCRGIDKRHWNSQCRTTQSYVRALTMDSKKRIGWRFIRIDTSCVCTLTIKRGR
**Q.** Which EC50 (TrkB receptor) does the source give for B1 here?
**A.** 3.7 nM

**Q.** And the EC50 (TrkB receptor; [7])?
**A.** 4 nM
